# Experimental data from US7629383B2, “Double esters” (Drug Discovery Laboratory AS, priority 2001, dated 2009).
# Read-outs that look alike come from different tables or passages of the source.
# Tests used:
# [1] = test system: Staphylococcus aureus; experiment: Antibacterial effect on agar gels; type: cell-based; conditions: same amount (10 mg)
# Procedure: The antibacterial effects of azelaic acid and the azelaic acid derivatives of Examples 7, 12 and 13 on Staphylococcus aureus were tested on agar gels.
# [2] = Clinical testing of creams, indication skin cancer; type: in vivo, human; conditions: one person, skin cancer in the face
# Procedure: A person with skin cancer in the face (one lesion above the nose) was treated with photodynamic therapy (5-ALA methyl ester, available from Photocure ASA, Oslo, Norway). The outcome of the treatment was very good. After about one year they observed a new lesion in the same area.
# [3] = cited from earlier work
Compound,inhibiting zones on agar gel [1],other results
"CCCCCC(=O)OCOC(=O)CCCCCCCC(=O)OCOC(=O)CCCCC [Example 13, bis-(hexanoyloxymethyl) nonanedioate]",large inhibiting zones,
"CCOC(=O)OC(C)OC(=O)CCCCCCCC(=O)OC(C)OC(=O)OCC (centres unmarked) [Example 7, bis-[1-[ethoxycarbonyloxy]-ethyl]nonanedioate]",large inhibiting zones,
"CCCC(=O)OCOC(=O)CCCCCCCC(=O)OCOC(=O)CCC [Example 12, bis-(butanoyloxymethyl)nonanedioate]",large inhibiting zones,
COC(=O)CCC(=O)CN [5-ALA methyl ester],,outcome of photodynamic therapy [2]: very good
"O=C(O)CCCCCCCC(=O)O [azelaic acid, nonanedioic acid]",no inhibiting effect,dose absorbed ([3]; administered orally): about 60%; dose absorbed ([3]; administered topically): about 3.6%; absorbed azelaic acid excreted into the urine ([3]; within 12 hours): 60%
